# Results as given in PMC7395068, “The evolution of strategies to minimise the risk of human drug-induced liver injury (DILI) in drug discovery and development” (Archives of Toxicology, 2020).
# Like-named read-outs stand apart in the source and are kept apart here.
# Key:
# [1] = tested on: HepG2 cells, primary human hepatocytes; conditions: In vitro Assay; ref Garside 2014; cited from earlier work
# [2] = cited from earlier work
# hLiMTs [3] = conditions: cited from earlier work; for hLiMTs ATP <100uM: In vitro Assay, ref Proctor 2017
# PHH = conditions: cited from earlier work; for PHH ATP <100uM: In vitro Assay, ref Proctor 2017
# [4] = tested on: isolated mouse liver mitochondria; conditions: In vitro Assay; ref Porceddu 2012; cited from earlier work
# HepG2 cells [5] = conditions: In vitro Assay; ref Tolosa 2012; cited from earlier work
# [6] = ref Chen 2011; cited from earlier work
# RMPCC's = conditions: In vitro Assay; ref Khetani 2012; cited from earlier work
# rBsep = conditions: In vitro Assay; ref Dawson 2012; cited from earlier work
# hu-MPCC = conditions: In vitro Assay; ref Khetani 2012; cited from earlier work
# human hepatocytes = conditions: In vitro Assay; ref Xu 2008; cited from earlier work
# HepG2 cells [7] = conditions: cited from earlier work; for Cluser analysis / Structural based (HCI): In vitro Assay, ref Persson 2013
# HepG2 cells [8] = conditions: cited from earlier work; for Structural based (HCI): In vitro Assay, ref O'Brien 2006
# [9] = cited from earlier work; remark: listed apart in the source
# Upcyte human hepatocytes = conditions: In vitro Assay; ref Tolosa 2019; cited from earlier work
# [10] = Plasma free fraction (fu) and unbound Cmax (Cmax,u); format: in vitro ADME, human; conditions: unbound plasma Cmax
# Description: The prediction of DILI severity was evaluated further using the 3D combined HCI assays using plasma-free fraction. The majority of fu values were obtained from literature, when unavailable in-house prediction was utilised. Unbound plasma Cmax concentrations (Cmax,u) were derived by multiplying total plasma Cmax with the corresponding free fraction (fu) for each compound.
# hLiMTs [11] = tested on: hLiMTs
# [12] = tested on: primary human hepatocytes, NIH3T3 fibroblasts, BSEP, CYP3A4; conditions: cited from earlier work
# [13] = read-out: Human plasma Cmax; total plasma Cmax.tot, median of 9 literature references; cited from earlier work
# HepaRG spheroids [14] = assay: Combined HCI (HCS) and cellular ATP 3D assay in HepaRG spheroids; conditions: HepaRG; for AC50 / minimal effective concentration: Homo sapiens
# Description: (§1) 3D spheroid models consisting of either primary human hepatocytes with non-parenchymal cells (hLiMT’s) or HepaRG cells (HepaRG spheroids) were assessed for size (MS), oxidative stress (OS), MMP, mitochondrial mass (MM), GSH and cellular ATP content following drug exposure. Fluorescent images are acquired using the confocal mode of an ArrayScan™ XTI HCI reader (ThermoScientific) following which cellular ATP was measured using 3D CellTiter-Glo (Promega).
# [15] = plasma free fraction; cited from earlier work
# hLiMTs [16] = assay: Combined HCI (HCS) and cellular ATP 3D assay in hLiMTs; conditions: for AC50 / minimal effective concentration: Homo sapiens
# HepaRG spheroids [17] = tested on: HepaRG spheroids
# Description: as §1
# [18] = tested on: THLE-Null and THLE-3A4 cells; conditions: In vitro Assay; ref Gustafsson 2014; cited from earlier work
# PHH spheroids = conditions: cited from earlier work
structure (smiles),measurement,setting,value
C[C@@H]1C[C@H]2[C@@H]3CCC4=CC(=O)C=C[C@]4(C)[C@@]3(F)[C@@H](O)C[C@]2(C)[C@@]1(O)C(=O)CO [dexamethasone],Cluster 1-6 +VE Assay,[1],-VE
same,"DILI +VE (5-8), DILI -VE (-4)",[2]; ref Chen 2016,-VE
same,DILI severity category,[2]; ref Chen 2016,Ambiguous DILI-concern
same,hLiMTs ATP <100uM,hLiMTs [3],-VE
same,PHH ATP <100uM,PHH,-VE
same,in vitro data EC2<=1x Cmax,[4],-VE
same,in vitro data EC20<=2uM,[4],-VE
same,Structural based (HCI),HepG2 cells [5],-VE
same,DILI Score (FDA) (1-8),[6],3
same,RMPCC's,RMPCC's,-VE
same,Inhibition of rBsep cutoff<1& cmax u>.2,rBsep,-VE
same,Inhibition of rBsep cutoff<3,rBsep,+VE
same,HMPCC's,hu-MPCC,-VE
same,Structural based (HCI),human hepatocytes,-VE
same,Cluser analysis,HepG2 cells [7],-VE
same,Structural based (HCI),HepG2 cells [7],-VE
same,Structural based (HCI),HepG2 cells [8],-VE
same,In vivo DILI,[9]; […],-VE
same,In vivo DILI,[9]; ref Dawson 2012,-VE
same,In vivo DILI,[9]; ref Garside 2014,-VE
same,In vivo DILI,[9]; ref Gustafsson 2014,-VE
same,In vivo DILI,[9]; ref Khetani 2012,-VE
same,In vivo DILI,[9]; ref O'Brien 2006,-VE
same,In vivo DILI,[9]; ref Persson 2013,-VE
same,In vivo DILI,[9]; ref Porceddu 2012,+VE
same,In vivo DILI,[9]; ref Proctor 2017,-VE
same,In vivo DILI,[9]; ref Tolosa 2012,-VE
same,In vivo DILI,[9]; ref Tolosa 2019,-VE
same,In vivo DILI,[9]; ref Williams 2019,-VE
same,In vivo DILI,[9]; ref Xu 2008,-VE
same,Upcytes multi donor assay 14day data,Upcyte human hepatocytes,-VE
"CC(=O)N1CCN(c2ccc(OCC3COC(Cn4ccnc4)(c4ccc(Cl)cc4Cl)O3)cc2)CC1 (stereo not shown) [ketoconazole, reference compound]",Cluster 1-6 +VE Assay,[1],+VE
same,DILI severity category (Chen et al. [2016]),"[2]; LTKB DILIrank category, ref Chen et al. 2016",Most
same,DILI severity category (Chen 2016),"[2]; human DILI classification, LTKB DILIrank, ref Chen et al. 2016",Most
same,DILI severity category,"[2]; human DILI severity, ref Chen et al.",Most
same,"DILI +VE (5-8), DILI -VE (-4)",[2]; ref Chen 2016,+VE
same,DILI severity category,[2]; ref Chen 2016,vMost-DILI-Concern
same,hLiMTs ATP <100uM,hLiMTs [3],+VE (IC50 threshold of 100 µM)
same,"hLiMTs/100uM, Proctor (2017)","hLiMTs [3]; hLiMTs, ATP, IC50 threshold 100 µM, ref Proctor et al. 2017",+VE (IC50 threshold of 100 µM)
same,"Human plasma Cmax,u",[10],0.565 µM
same,"PHH/100uM, Proctor (2017)","PHH; 2D PHH, ATP, IC50 threshold 100 µM, ref Proctor et al. 2017",+VE (IC50 threshold of 100 µM)
same,PHH ATP <100uM,PHH,+VE (IC50 threshold of 100 µM)
same,DILI prediction hLiMTs (HCS-MEC),hLiMTs [11],+VE (key: +VE: MEC < 25 × Cmax.tot cut-off)
same,Cellular toxicity (3T3 cells),[12],-VE
same,Combined Assay,[12],+VE
same,"DILI in vitro assay prediction, Schadt (2015)",[12],+VE
same,GSH adduct HML,[12],-VE
same,Hepatocyte cellular toxicity,[12],+VE
same,MitoTox 3T3,[12],-VE
same,TDI CYP3A4,[12],-VE
same,hBSEP inhibition,[12],+VE
same,in vitro data EC2<=1x Cmax,[4],+VE
same,in vitro data EC20<=2uM,[4],-VE
same,Cmax,[13],11.3 µM
same,DILI Score (FDA) (1-8),[6],8
same,HepaRG <25x Avg Cmax ATP,"HepaRG spheroids [14]; ATP endpoint, cut-off <25x Avg Cmax",+ve
same,HepaRG <100x Avg Cmaxu ATP,"HepaRG spheroids [14]; ATP endpoint, cut-off <100x Avg Cmaxu",+ve (<100x Avg Cmaxu)
same,HepaRG <25x Avg Cmax HCS,"HepaRG spheroids [14]; HCS endpoints, cut-off <25x Avg Cmax",+ve
same,HepaRG <100x Avg Cmaxu HCS,"HepaRG spheroids [14]; HCS endpoints, cut-off <100x Avg Cmaxu",+ve (<100x Avg Cmaxu)
same,HepaRG <25x Avg Cmax All,"HepaRG spheroids [14]; all endpoints (ATP and HCS), cut-off <25x Avg Cmax",+ve
same,HepaRG Cmax max All,"HepaRG spheroids [14]; all endpoints, Cmax max used",+ve
same,HepaRG Cmax min All,"HepaRG spheroids [14]; all endpoints, Cmax min used",+ve
same,HepaRG <10 uM All,"HepaRG spheroids [14]; all endpoints, cut-off <10 uM",+ve (<10 uM)
same,HepaRG <100x Avg Cmaxu All,"HepaRG spheroids [14]; all endpoints, cut-off <100x Avg Cmaxu",+ve (<100x Avg Cmaxu)
same,AC50,HepaRG spheroids [14]; read-out: ATP endpoint AC50,8.42 µM
same,minimal effective concentration,HepaRG spheroids [14]; read-out: ATP endpoint MEC,7.27 µM
same,AC50,HepaRG spheroids [14]; read-out: HCS endpoint AC50,15.4 µM
same,minimal effective concentration,HepaRG spheroids [14]; read-out: HCS endpoint MEC,0.713 µM
same,fu,[15],0.050
same,AC50,hLiMTs [16]; read-out: ATP endpoint AC50,9.09 µM
same,minimal effective concentration,hLiMTs [16]; read-out: ATP endpoint MEC,6.84 µM
same,AC50,hLiMTs [16]; read-out: HCS endpoint AC50,12.4 µM
same,minimal effective concentration,hLiMTs [16]; read-out: HCS endpoint MEC,5.88 µM
same,hLiMTs <25x Avg Cmax ATP,"hLiMTs [16]; hLiMTs, ATP endpoint, cut-off <25x Avg Cmax",+ve
same,hLiMTs <100x Avg Cmaxu ATP,"hLiMTs [16]; hLiMTs, ATP endpoint, cut-off <100x Avg Cmaxu",+ve (<100x Avg Cmaxu)
same,hLiMTs <25x Avg Cmax HCS,"hLiMTs [16]; hLiMTs, HCS endpoints, cut-off <25x Avg Cmax",+ve
same,hLiMTs <100x Avg Cmaxu HCS,"hLiMTs [16]; hLiMTs, HCS endpoints, cut-off <100x Avg Cmaxu",+ve (<100x Avg Cmaxu)
same,hLiMTs <25x Avg Cmax All,"hLiMTs [16]; hLiMTs, all endpoints (ATP and HCS), cut-off <25x Avg Cmax",+ve
same,hLiMTs Cmax max All,"hLiMTs [16]; hLiMTs, all endpoints, Cmax max used",+ve
same,hLiMTs Cmax min All,"hLiMTs [16]; hLiMTs, all endpoints, Cmax min used",+ve
same,hLiMTs <10 uM All,"hLiMTs [16]; hLiMTs, all endpoints, cut-off <10 uM",+ve (<10 uM)
same,hLiMTs <100x Avg Cmaxu All,"hLiMTs [16]; hLiMTs, all endpoints, cut-off <100x Avg Cmaxu",+ve (<100x Avg Cmaxu)
same,Inhibition of rBsep cutoff<1& cmax u>.2,rBsep,+VE
same,Inhibition of rBsep cutoff<3,rBsep,+VE
same,DILI prediction HepaRG spheroids (HCS-MEC),HepaRG spheroids [17],+VE (key: +VE: MEC < 25 × Cmax.tot cut-off)
same,THLE-Null,[18],+VE
same,Cluser analysis,HepG2 cells [7],+VE
same,Structural based (HCI),HepG2 cells [7],+VE
same,"DILI in vitro assay prediction, Persson (2013)","HepG2 cells [7]; Structural based (HCI), HepG2, ref Persson et al. 2013",+VE
same,hLiMTs ATP <20 x Cmax,"PHH spheroids; In vitro Assay, ref Vorrink 2018",+VE (IC20 < 20 × Cmax.tot cut-off)
same,"DILI in vitro assay prediction, Vorrink (2018)","PHH spheroids; PHH spheroids, ATP, 14 days, IC20 < 20 × Cmax.tot, ref Vorrink et al. 2018",+VE (IC20 < 20 × Cmax.tot cut-off)
same,Structural based (HCI),HepG2 cells [8],+VE
same,"DILI in vitro assay prediction, O'Brien (2006)","HepG2 cells [8]; Structural based (HCI), HepG2, ref O'Brien et al. 2006",+VE (lowest HCI endpoint IC50 (or in the absence of dose–response < 100 µM) < 30 × total human plasma exposure levels (Cmax.tot))
same,Assigned DILI category,"[9]; Chen et al. 2016 or literature alignment, ref Chen et al. 2016",3
same,In vivo DILI,[9]; […],+VE
same,In vivo DILI,[9]; ref Albrecht 2019,+VE
same,In vivo DILI,[9]; ref Aleo 2019,+VE
same,In vivo DILI,[9]; ref Dawson 2012,+VE
same,In vivo DILI,[9]; ref Garside 2014,+VE
same,In vivo DILI,[9]; ref Gustafsson 2014,+VE
same,In vivo DILI,[9]; ref O'Brien 2006,+VE
same,In vivo DILI,[9]; ref Persson 2013,+VE
same,In vivo DILI,[9]; ref Porceddu 2012,+VE
same,In vivo DILI,[9]; ref Proctor 2017,+VE
same,In vivo DILI,[9]; ref Schadt 2015,+VE
same,In vivo DILI,[9]; ref Tolosa 2019,+VE
same,In vivo DILI,[9]; ref Vorrink 2018,+VE
same,In vivo DILI,[9]; ref Williams 2019,+VE
same,Upcytes multi donor assay 14day data,Upcyte human hepatocytes,+VE
